ChEMBL document CHEMBL4000251, “Discovery of 4-chloro-2-(2,4-dichloro-6-methylphenoxy)-1-methyl-7-(pentan-3-yl)-1H-benzimidazole, a novel CRF1 receptor antagonist” (Bioorg Med Chem, 2017)

Key:
[1] = Oral bioavailability in rat at 1 mg/kg; assay type: ADME, organism-based; settings: in vivo
[2] = AUC in rat at 1 mg/kg, po; assay type: ADME, organism-based; settings: in vivo

CCC(CC)c1ccc(Cl)c2nc(Oc3c(C)cc(Cl)cc3Cl)n(C)c12 showed a bioavailability [1] of 30.8% and an AUC [2] of 94.6 ng·h/mL.
